Data from patent publication US9241996B2, “Photochemical internalisation of kinase inhibitors” (PCI BIOTECH AS, priority 2008, dated 2016).
Like-named read-outs stand apart in the source and are kept apart here.

Legend:
[1] = tested on: A-431 human skin carcinoma; assay: Growth inhibition (Coulter counting, survival fraction) after PDT with TPPS2a, AG1478 and the combination (Example 3); format: cell-based; conditions: for synergy/antagonism value F: p=0.05
Method: The studies were performed using the EGFR positive cell line A-431 human skin carcinoma (ATCC, CRL 1555). The A-431 cells were subcultured two or three times a week in DMEM (Bio Whitaker Europe, Velviers, Belgium). Media were supplied with 10% fetal calf serum (FCS) (GIBCO BRL, Paisley, UK), 100 U/ml penicillin, 100 U/ml streptomycin (Sigma, St. Loice, MO) and 2 mM glutamine (Bio Whittaker, Velviers, Belgium). The cells were grown and incubated in 75 cm^2 flasks (Nunc, Roskilde, Denmark) at 37° C. in a humidified atmosphere containing 5% CO2.
(§1) A-431 cells were seeded out and left to fasten for 6 hrs, or longer as described for the different combination treatment regimes with Tyrphostin AG1478, before an 18 hour incubation with 0.1 ug/ml LumiTrans (TPPS2a, meso-tetraphenylporphine with two sulfonate groups on adjacent phenyl rings) (PCI Biotech AS, Oslo, Norway). The cells were then washed twice with drug free medium and chased in new drug free medium for 4 hrs to wash the TPPS2a off the plasma membrane. Cells were then exposed to blue light from LumiSource (PCT Biotech AS) consisting of 4 light tubes delivering light with λ=[…], maximum at 435 nm and irradiance=13.5 mW/cm^2 at different doses as indicated in the figures.
Growth inhibition measurements were carried out after incubation of the cells for 72 hrs with different concentrations of AG1478 directly after exposure to light. Cell counting was performed with an in-house made Coulter counter after trypsination and resuspension in PBS. Two parallels of each sample were made, and the experiments were reproduced twice at least.
For each experiment the survival fraction (SF) of cells was found by dividing the number of treated cells by the average number of untreated cells in the two parallels. The expected additive effect was computed as SFadd=SFPDT×SFTKI where SFPDT and SFTKI refers to the observed effect after PDT or TKI treatment alone. SFadd was then compared to the observed effect of the combined treatment, SFcomb, using the synergy/antagonism value F F=log SFadd/log SFComb=log SFTKI+log SFPDT−log SFcorab
Antagonistic effects would result in negative F values. Significant deviations of F from zero were established through t-tests.

EGFR = biological target: T1, EGFR (Homo sapiens, UniProt P00533); assay: Western blotting of total and phosphorylated EGFR after PDT, AG1478 and the combination; format: cell-based
T1 construct: time dependent effects on total and phosphorylated EGFR after PDT˜LD50, AG1478 (TKI)˜LD50 and the combination treatment in A-431 cells; endogenous in cells; host or cells: A-431 human skin carcinoma cells (ATCC, CRL 1555)
T1 sequence (P00533 25-1210): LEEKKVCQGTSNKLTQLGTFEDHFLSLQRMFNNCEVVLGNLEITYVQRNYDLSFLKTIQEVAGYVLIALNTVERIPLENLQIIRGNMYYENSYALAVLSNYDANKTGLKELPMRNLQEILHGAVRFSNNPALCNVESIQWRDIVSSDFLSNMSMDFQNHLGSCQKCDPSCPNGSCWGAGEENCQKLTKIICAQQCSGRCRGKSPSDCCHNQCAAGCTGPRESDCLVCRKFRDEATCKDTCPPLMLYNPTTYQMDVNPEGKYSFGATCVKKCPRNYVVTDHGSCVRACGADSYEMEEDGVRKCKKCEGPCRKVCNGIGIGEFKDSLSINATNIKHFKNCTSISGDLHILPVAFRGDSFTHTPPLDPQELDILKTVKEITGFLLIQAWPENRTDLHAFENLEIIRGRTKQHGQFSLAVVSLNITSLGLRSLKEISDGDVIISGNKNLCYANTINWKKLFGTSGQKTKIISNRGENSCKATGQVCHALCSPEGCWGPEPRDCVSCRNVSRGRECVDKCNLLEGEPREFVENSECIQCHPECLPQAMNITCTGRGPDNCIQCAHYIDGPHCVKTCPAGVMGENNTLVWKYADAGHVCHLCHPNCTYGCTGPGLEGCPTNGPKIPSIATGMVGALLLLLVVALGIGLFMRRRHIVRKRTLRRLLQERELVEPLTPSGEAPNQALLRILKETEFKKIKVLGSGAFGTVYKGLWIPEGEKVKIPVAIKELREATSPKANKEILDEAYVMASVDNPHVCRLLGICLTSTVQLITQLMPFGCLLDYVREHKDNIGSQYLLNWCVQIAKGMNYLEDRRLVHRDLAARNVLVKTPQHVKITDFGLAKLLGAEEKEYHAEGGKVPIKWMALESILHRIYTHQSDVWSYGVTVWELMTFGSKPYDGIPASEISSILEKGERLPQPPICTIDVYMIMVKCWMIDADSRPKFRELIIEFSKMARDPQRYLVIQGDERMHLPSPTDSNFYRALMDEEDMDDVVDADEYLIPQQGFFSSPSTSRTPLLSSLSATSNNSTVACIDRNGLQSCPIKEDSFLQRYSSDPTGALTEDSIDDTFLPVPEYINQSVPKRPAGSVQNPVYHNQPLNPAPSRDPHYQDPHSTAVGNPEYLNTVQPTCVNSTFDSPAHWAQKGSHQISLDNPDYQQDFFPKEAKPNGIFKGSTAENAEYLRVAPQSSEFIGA
Method: as §1
At indicated times after light exposure the cell-medium was removed and cells were incubated for 2 minutes with 100 ng/ml EGF. Cells were then placed on ice and the sample preparation was performed as described before (Weyergang et al., 2007, Biochem. Pharmacol., 74, p226-235). The same amount of lysed cells from each sample, as measured by the absorption of nucleic acids at 260 nm, was subjected to gel electrophoresis on 12% SDS/polyacrylamide gels and blotted to Hybond-P PVDF membranes (Amersham Biosciences, Amersham Place, UK). Immunodetection was carried out using antibodies from Cell Signal Technology (Cell Signalling Technology Beverly, Mass.); EGFR antibody (#2232), Phospho-EGFR antibody (#2236), Anti-mouse IgG, HRP-linked Antibody (#7076) Anti-rabbit IgG, HRP-linked Antibody (#7074). ECL Plus Western blotting Detection Reagents, STORM and Image Quant from GE Healthcare (GE Healthcare, Amersham Place, UK) was used to detect protein bands on the membrane.

[2] = tested on: multi-drug resistant NCI-ADR-RES cancer cell line; assay: CellTiter-Blue cell survival after PCI (TPCS2a, LumiSource illumination) with TKI, NCI-ADR-RES; format: cell-based; conditions: for IC50: Homo sapiens, NCI/ADR-RES, read-out: nilotinib dose needed to achieve 50% cell killing
Method: TPCS2a was diluted into growth medium at 0.4 μg/ml (NCI-H460) or 0.8 μg/ml (NCI-ADR-RES) and 25 μl was added to each test well (final assay concentrations 0.2 μg/ml and 0.4 μg/ml, respectively).
The plates were washed 6 times with 50 μl wash buffer using an EMBLA 384-well plate washer.
The plates were washed as before.

[3] = at typical therapeutic doses per patient per day; cited from earlier work
[4] = tested on: NCI-H460 human lung cancer cell line; assay: CellTiter-Blue cell survival after PCI (TPCS2a, LumiSource illumination) with TKI, NCI-H460; conditions: for IC50: Homo sapiens, read-out: nilotinib dose needed to achieve 50% cell killing
A431 cells = assay: Cell survival by MTT assay after TPCS2a photochemical treatment and imatinib (Example 2); format: cell-based, human; conditions: imatinib up to 25 μM
Method: A431 cells (2500 cells/well, 100 μL/well) were seeded into 96-well plates (Nunc, Denmark) and incubated for 5 hours, then 0.1 μg/mL TPCS2a was added and incubated for 18 h (5% v/v CO2, 37° C., DMEM medium with penicillin 100 U/mL, Glutamine 2 mM, Streptomycin 100 μg/mL). […] After a further 72 hours incubation, cell survival was measured by the MTT assay.
The MTT method is based on reduction of a water-soluble tetrazolium salt (MTT) to a purple, insoluble formazan product by mitochondrial dehydrogenases present in living, metabolically active cells. 100 μL medium containing 0.25 μg MTT was added to the cells, followed by 1 h and 30 min of incubation (37° C., 5% v/v CO2). The resulting formazan crystals were dissolved by adding 100 μl DMSO (Sigma, Mo., USA) per well. The 96 well plate was read by a Multiscan EX micro plate reader (Labsystems, Finland) with a 570 nm band pass filter.

[5] = tested on: A431 human epithelial carcinoma cell line; assay: Cell survival by Coulter Counter after TPCS2a photochemical treatment and imatinib (Example 1); format: cell-based
Method: Cells from the A431 human epithelial carcinoma cell line (75,000 cells/well, 1.5 mL/well) were seeded into 6-well plates (Nunc, Denmark), incubated for 5 hours, then 0.1 μg/mL TPCS2a was added and the cells were further incubated for 18 h (5% v/v CO2, 37° C. in DMEM medium with penicillin 100 U/mL, Glutamine 2 mM, Streptomycin 100 μg/mL). The cells were washed twice with medium (1 mL/well), incubated for 4 hours (37° C., 5% v/v CO2) in serum-containing medium and illuminated for 1, 2 or 4 minutes as shown in FIG. 2.
The cells were washed twice with Trypsin EDTA (200 μL/well) and incubated for 5 minutes (400 μL/well), then 1.5 mL medium was added and the mixture transferred to 10 mL tubes and centrifuged for 3 minutes at 1000 rpm. After removing the medium, 1 mL PBS (Phosphate Buffered Saline) was added and the solution mixed thoroughly. 750 μL was transferred to a beaker with 20 mL PBS and the amount of viable cells was determined with a Coulter Counter apparatus.

COc1cc2ncnc(Nc3cccc(Cl)c3)c2cc1OC [AG1478, Tyrphostin AG1478]
synergy/antagonism value F ([1]; 4 uM AG1478 with PDT): 0.18±0.09 | synergy/antagonism value F ([1]; 5 uM AG1478 with PDT): 0.17±0.08 | average survival fraction, TKI treatment only ([1]; AG1478 72 hrs, mean of three independent experiments (FIG. 6: 4 and 5 μM TKI)): 0.41 | average survival fraction, two treatments combined ([1]; AG1478 administrated directly after light exposure (PDT), mean of three independent experiments): 0.16 | synergy/antagonism value F, mean and st. error ([1]; AG1478 between 1 and 5 μM with PDT, p=0.005): 0.15 ± 0.05 | synergy/antagonism parameter F of the experiments ([1]; AG1478 with PDT, three independent experiments): positive and statistically significant from 0 | calculated additive effect of the two treatments (SFadd) ([1]; SFPDT×SFTKI): 0.24 | EGFR phosphorylation (EGFR; 4 μM AG1478 alone, 1-4 hrs, A-431 cells): strong attenuation of EGFR phosphorylation | EGFR phosphorylation, combination therapy (EGFR; PDT (LD50) and AG1478, A-431 cells): same decrease in EGFR phosphorylation as that observed with the AG1478 treatment alone

O=S(=O)(O)c1ccc(-c2c3nc(c(-c4ccc(S(=O)(=O)O)cc4)c4ccc([nH]4)c(-c4ccccc4)c4nc(c(-c5ccccc5)c5ccc2[nH]5)C=C4)C=C3)cc1 [PDT, meso-tetraphenylporphine with two sulfonate groups on adjacent phenyl rings]
average survival fraction, PDT treatment only ([1]; TPPS2a 0.1 ug/ml and blue light, mean of three independent experiments): 0.61 | phosphorylated EGFR after PDT alone (EGFR; 1-4 hrs after PDT with LD50, A-431 cells): No decrease in phosphorylated EGFR was observed | phospho-EGFR after PDT alone (EGFR; measured 1 hour after PDT, doses reducing relative viability up to 10% of untreated, A-431 cells): did not result in a pronounced reduction

C#Cc1cccc(Nc2ncnc3cc(OCCOC)c(OCCOC)cc23)c1 [erlotinib]
erlotinib dose at which 20% cell killing was achieved ([2]; 2 min illumination, TPCS2a 0.4 μg/ml): about 100 μM | erlotinib dose at which 20% cell killing was achieved ([2]; 3 min illumination, TPCS2a 0.4 μg/ml): about 100 μM | erlotinib dose at which 20% cell killing was achieved ([2]; 4 min illumination, TPCS2a 0.4 μg/ml): about 10 μM | typical blood concentrations [3]: 1 to 10 µM | erlotinib dose needed to induce 30% cell killing ([4]; 2 min illumination, TPCS2a 0.2 μg/ml): 14 µM | erlotinib dose needed to induce 30% cell killing ([4]; 3 min illumination, TPCS2a 0.2 μg/ml): 4 µM | potentiation of the effect by photochemical internalisation ([4]; erlotinib, NCI-H460, 3 min versus no illumination): 10 times | erlotinib dose needed to induce 30% cell killing ([4]; no illumination): 43 µM

Cc1ccc(NC(=O)c2ccc(CN3CCN(C)CC3)cc2)cc1Nc1nccc(-c2cccnc2)n1 [imatinib]
cytotoxicity of imatinib alone (A431 cells; 0 s illumination, 72 hours): only modest cytotoxicity even at the highest dose | cytotoxic effect with illumination (A431 cells; TPCS2a 0.1 μg/mL, 60 or 120 s illumination, corrected for photochemical treatment alone): illumination increased the cytotoxic effect of imatinib in a light dose-dependent manner | cytotoxicity versus photochemical treatment alone ([5]; imatinib 5×10^-6 M, TPCS2a 0.1 μg/mL, illuminated 1, 2 or 4 minutes, 72 hour incubation): substantially higher cytotoxicity | effect on cell survival ([5]; imatinib 5×10^-6 M, without illumination, TPCS2a-treated A431 cells, 72 hour incubation): no significant effect on cell survival

Cc1cn(-c2cc(NC(=O)c3ccc(C)c(Nc4nccc(-c5cccnc5)n4)c3)cc(C(F)(F)F)c2)cn1 [nilotinib]
IC50 ([2]; 0 h, 0 min illumination): ~20 µM | IC50 ([2]; 4 min, 4 min illumination, TPCS2a 0.4 μg/ml): ~10 µM | typical blood concentrations [3]: 1 to 5 µM | IC50 ([4]; NCI-H460, 0 h): 6 µM | IC50 ([4]; NCI-H460, 5 min): ~1.7 µM

tetraphenyl chlorin disulfonate [TPCS2a]
cell survival, illumination alone ([5]; TPCS2a 0.1 μg/mL, illuminated 1, 2 or 4 minutes, no imatinib): cell survival decreases with increasing illumination time in a dose-dependent manner
